From the supplement of paper PMC10307832

Key:
Test in all cases: relative viability (nuclei count vs DMSO), 5 days (fraction); higher = more cells survive
MLN4924 + Foretinib = compound: NS(=O)(=O)OC[C@@H]1C[C@@H](n2ccc3c(N[C@H]4CCc5ccccc54)ncnc32)C[C@@H]1O [MLN4924] + COc1cc2c(Oc3ccc(NC(=O)C4(C(=O)Nc5ccc(F)cc5)CC4)cc3F)ccnc2cc1OCCCN1CCOCC1 [Foretinib] (partner 0.25 µM)
Procedure, shortened: (§1)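 Relative viability equals treated-well nuclei counts divided by vehicle-well nuclei counts. Counts came from 4× images of lung cancer cell lines grown in 1536-well plates for 5 days after pin-tool dosing on the day after seeding. Dosing used one drug alone or a fixed anchor-drug dose plus five library-drug doses (not always all listed) in √10 steps, and values are medians of duplicate plates.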

Carboplatin + Pictilisib = compound: C1CC(C1)(C(=O)O)C(=O)O.[NH2-].[NH2-].[Pt+2] [Carboplatin] + CS(=O)(=O)N1CCN(Cc2cc3nc(-c4cccc5[nH]ncc45)nc(N4CCOCC4)c3s2)CC1 [Pictilisib] (partner 1 µM)
Procedure, shortened: as §1

Carboplatin + Trametinib = compound: C1CC(C1)(C(=O)O)C(=O)O.[NH2-].[NH2-].[Pt+2] [Carboplatin] + CC(=O)Nc1cccc(-n2c(=O)n(C3CC3)c(=O)c3c(Nc4ccc(I)cc4F)n(C)c(=O)c(C)c32)c1 [Trametinib] (partner 0.02 µM)
Procedure, shortened: as §1

GSK126 + Linsitinib = compound: CC[C@H](C)N1C=C(C2=C(C=C(C=C21)C3=CN=C(C=C3)N4CCNCC4)C(=O)NCC5=C(C=C(NC5=O)C)C)C [GSK126] + C[C@]1(O)C[C@@H](c2nc(-c3ccc4ccc(-c5ccccc5)nc4c3)c3c(N)nccn32)C1 [Linsitinib] (partner 1 µM)
Procedure, shortened: as §1

UMC-11
relative viability (MLN4924 + Foretinib; first compound 0.04 µM): 0.57
relative viability (MLN4924 + Foretinib; first compound 0.1265 µM): 0.307
relative viability (MLN4924 + Foretinib; first compound 0.4 µM): 0.298
relative viability (MLN4924 + Foretinib; first compound 1.265 µM): 0.191
relative viability (MLN4924 + Foretinib; first compound 4 µM): 0.173
relative viability (Carboplatin + Pictilisib; first compound 0.08 µM): 0.779
relative viability (Carboplatin + Pictilisib; first compound 0.253 µM): 0.777
relative viability (Carboplatin + Pictilisib; first compound 0.8 µM): 0.76
relative viability (Carboplatin + Pictilisib; first compound 2.53 µM): 0.78
relative viability (Carboplatin + Pictilisib; first compound 8 µM): 0.587
relative viability (Carboplatin + Trametinib; first compound 0.08 µM): 0.632
relative viability (Carboplatin + Trametinib; first compound 0.253 µM): 0.706
relative viability (Carboplatin + Trametinib; first compound 0.8 µM): 0.738
relative viability (Carboplatin + Trametinib; first compound 2.53 µM): 0.929
relative viability (Carboplatin + Trametinib; first compound 8 µM): 0.532
relative viability (GSK126 + Linsitinib; first compound 0.08 µM): 1.14
relative viability (GSK126 + Linsitinib; first compound 0.253 µM): 0.978
relative viability (GSK126 + Linsitinib; first compound 0.8 µM): 1.04
relative viability (GSK126 + Linsitinib; first compound 2.53 µM): 1.02
relative viability (GSK126 + Linsitinib; first compound 8 µM): 1.15
